These results are taken from ChEMBL document CHEMBL3991601, “The target landscape of clinical kinase drugs” (Science, 2017).

Structures are written as SMILES. Active and inactive are the calls of the source. Rule as the data show it, for most assays here: actives have a measured Kd and inactives only a lower limit.

For test [1], the target named is Calcium/calmodulin-dependent protein kinase type II subunit gamma (Homo sapiens, UniProt Q13555).
Test [2] concerns the target AP2-associated protein kinase 1 (Homo sapiens, UniProt Q2M2I8).
Test [3] addresses Tyrosine-protein kinase SYK (Homo sapiens, UniProt P43405).
Test [4] deals with T1, Phenylalanine--tRNA ligase beta subunit (Homo sapiens, UniProt Q9NSD9).
T1 sequence (Q9NSD9 whole entry): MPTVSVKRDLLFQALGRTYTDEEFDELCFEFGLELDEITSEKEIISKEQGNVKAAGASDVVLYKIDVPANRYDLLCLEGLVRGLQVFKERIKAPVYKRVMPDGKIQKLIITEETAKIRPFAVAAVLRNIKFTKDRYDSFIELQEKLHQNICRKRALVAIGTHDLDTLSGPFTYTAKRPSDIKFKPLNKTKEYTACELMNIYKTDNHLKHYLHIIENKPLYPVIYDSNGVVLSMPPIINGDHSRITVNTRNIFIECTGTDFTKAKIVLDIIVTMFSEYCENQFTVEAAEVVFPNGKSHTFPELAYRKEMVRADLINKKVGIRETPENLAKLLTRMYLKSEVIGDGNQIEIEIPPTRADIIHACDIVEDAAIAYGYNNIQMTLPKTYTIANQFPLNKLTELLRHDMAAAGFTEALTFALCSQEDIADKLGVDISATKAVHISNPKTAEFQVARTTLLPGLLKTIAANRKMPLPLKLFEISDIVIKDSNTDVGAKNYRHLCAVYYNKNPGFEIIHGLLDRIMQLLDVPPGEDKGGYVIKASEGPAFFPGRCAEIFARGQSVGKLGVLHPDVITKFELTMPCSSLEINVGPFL

A further test has as its target T2, Ephrin type-B receptor 6 (Homo sapiens, UniProt O15197).
T2 sequence (O15197 whole entry): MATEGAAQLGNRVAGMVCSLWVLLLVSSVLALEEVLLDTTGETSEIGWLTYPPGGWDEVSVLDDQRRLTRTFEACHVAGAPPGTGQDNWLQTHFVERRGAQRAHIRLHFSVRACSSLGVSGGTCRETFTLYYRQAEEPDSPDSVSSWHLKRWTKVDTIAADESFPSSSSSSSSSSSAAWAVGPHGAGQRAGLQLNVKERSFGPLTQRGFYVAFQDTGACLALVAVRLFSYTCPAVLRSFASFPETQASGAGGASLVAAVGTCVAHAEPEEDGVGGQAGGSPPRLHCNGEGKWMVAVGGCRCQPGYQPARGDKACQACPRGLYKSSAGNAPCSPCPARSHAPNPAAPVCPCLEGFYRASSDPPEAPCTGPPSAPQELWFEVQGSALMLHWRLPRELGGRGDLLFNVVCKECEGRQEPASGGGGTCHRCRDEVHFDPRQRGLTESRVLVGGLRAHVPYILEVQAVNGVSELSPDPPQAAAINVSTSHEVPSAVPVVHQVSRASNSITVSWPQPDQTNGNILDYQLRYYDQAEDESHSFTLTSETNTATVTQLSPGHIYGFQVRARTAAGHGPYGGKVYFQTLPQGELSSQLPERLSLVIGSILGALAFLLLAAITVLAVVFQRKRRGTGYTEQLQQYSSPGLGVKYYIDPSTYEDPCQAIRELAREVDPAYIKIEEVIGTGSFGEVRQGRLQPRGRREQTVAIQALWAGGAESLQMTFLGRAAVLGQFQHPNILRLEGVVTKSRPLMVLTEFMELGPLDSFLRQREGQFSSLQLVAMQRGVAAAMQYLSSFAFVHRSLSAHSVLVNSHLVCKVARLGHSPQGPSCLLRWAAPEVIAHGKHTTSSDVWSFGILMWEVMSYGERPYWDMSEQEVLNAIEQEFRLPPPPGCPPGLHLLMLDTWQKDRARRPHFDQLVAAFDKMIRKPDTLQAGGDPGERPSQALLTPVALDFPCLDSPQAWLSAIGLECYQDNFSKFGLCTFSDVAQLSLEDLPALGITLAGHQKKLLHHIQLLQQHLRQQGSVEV

The target of test [5] is 5'-AMP-activated protein kinase catalytic subunit alpha-1 (Homo sapiens, UniProt Q13131).
In test [6] the target is Serine/threonine-protein kinase N1 (Homo sapiens, UniProt Q16512).
For test [7], the target named is T3, General transcription and DNA repair factor IIH helicase subunit XPD (Homo sapiens, UniProt P18074).
T3 sequence (P18074 whole entry): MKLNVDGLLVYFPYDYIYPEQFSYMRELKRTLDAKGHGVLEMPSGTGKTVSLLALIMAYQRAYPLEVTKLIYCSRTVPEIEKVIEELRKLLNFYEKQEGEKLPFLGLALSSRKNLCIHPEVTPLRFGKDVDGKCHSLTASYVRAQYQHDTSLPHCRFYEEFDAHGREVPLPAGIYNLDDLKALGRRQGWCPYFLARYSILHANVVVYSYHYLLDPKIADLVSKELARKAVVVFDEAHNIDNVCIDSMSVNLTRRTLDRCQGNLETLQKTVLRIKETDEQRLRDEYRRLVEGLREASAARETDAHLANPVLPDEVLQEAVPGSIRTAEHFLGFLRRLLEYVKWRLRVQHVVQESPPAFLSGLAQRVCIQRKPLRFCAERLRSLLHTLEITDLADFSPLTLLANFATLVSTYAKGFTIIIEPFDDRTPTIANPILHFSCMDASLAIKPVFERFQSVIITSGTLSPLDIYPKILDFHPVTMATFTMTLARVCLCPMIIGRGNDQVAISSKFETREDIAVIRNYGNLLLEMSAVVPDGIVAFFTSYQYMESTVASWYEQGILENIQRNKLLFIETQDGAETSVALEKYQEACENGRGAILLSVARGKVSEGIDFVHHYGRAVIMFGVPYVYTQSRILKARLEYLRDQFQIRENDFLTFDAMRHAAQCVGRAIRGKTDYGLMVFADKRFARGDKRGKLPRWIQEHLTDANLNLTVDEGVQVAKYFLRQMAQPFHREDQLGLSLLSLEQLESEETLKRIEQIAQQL
Particulars: read-out: Kd apparent; k-562, colo 205, sk-n-be(2) and mv-4-11.

The target of another test is LIM domain kinase 1 (Homo sapiens, UniProt P53667).
Test [8] addresses Tyrosine-protein kinase Fer (Homo sapiens, UniProt P16591).
Test [9] concerns the target Serine/threonine-protein kinase N2 (Homo sapiens, UniProt Q16513).
Also: in the data inactive means no Kd found up to 30 µM.

Sequence of Calcium/calmodulin-dependent protein kinase type II subunit gamma (Q13555 whole entry): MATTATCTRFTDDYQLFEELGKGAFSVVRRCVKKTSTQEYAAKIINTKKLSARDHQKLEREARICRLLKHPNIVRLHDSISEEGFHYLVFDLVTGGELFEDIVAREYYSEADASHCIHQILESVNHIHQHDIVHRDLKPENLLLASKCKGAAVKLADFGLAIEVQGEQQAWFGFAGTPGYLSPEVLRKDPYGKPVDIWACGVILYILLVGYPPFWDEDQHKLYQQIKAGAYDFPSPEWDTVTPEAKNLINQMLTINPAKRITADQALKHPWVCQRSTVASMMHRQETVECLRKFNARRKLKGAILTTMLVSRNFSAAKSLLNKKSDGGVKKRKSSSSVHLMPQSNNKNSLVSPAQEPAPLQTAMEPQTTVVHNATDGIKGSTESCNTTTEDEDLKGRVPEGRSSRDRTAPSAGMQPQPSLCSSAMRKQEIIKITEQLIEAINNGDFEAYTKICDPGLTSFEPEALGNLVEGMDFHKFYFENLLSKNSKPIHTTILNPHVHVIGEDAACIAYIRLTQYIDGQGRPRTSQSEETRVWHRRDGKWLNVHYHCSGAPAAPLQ
Sequence of AP2-associated protein kinase 1 (Q2M2I8 whole entry): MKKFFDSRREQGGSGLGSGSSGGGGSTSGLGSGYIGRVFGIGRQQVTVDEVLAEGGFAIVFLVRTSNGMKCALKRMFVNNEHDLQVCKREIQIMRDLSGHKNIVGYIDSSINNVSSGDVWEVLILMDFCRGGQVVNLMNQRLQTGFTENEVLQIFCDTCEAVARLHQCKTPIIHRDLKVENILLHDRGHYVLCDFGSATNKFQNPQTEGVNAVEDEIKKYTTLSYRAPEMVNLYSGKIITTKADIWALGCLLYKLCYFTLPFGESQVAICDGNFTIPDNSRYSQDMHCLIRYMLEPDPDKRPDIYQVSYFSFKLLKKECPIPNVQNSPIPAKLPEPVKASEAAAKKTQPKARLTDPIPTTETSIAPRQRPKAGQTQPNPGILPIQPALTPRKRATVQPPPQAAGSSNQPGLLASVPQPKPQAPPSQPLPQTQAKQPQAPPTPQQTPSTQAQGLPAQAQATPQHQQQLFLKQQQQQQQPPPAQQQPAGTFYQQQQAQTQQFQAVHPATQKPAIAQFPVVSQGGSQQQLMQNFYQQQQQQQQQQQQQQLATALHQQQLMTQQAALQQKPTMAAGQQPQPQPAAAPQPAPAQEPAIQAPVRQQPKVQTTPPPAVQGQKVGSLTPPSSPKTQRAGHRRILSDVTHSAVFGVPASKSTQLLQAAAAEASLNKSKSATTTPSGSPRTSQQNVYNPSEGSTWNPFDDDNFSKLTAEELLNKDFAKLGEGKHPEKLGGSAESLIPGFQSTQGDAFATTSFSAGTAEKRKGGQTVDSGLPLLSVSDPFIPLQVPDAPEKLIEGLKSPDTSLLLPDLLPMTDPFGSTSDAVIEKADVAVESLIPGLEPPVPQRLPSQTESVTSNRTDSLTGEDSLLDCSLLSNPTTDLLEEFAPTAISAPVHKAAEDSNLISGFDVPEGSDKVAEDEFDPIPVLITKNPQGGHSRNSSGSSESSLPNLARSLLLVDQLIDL
Sequence of LIM domain kinase 1 (P53667 whole entry, the tested form may be a part): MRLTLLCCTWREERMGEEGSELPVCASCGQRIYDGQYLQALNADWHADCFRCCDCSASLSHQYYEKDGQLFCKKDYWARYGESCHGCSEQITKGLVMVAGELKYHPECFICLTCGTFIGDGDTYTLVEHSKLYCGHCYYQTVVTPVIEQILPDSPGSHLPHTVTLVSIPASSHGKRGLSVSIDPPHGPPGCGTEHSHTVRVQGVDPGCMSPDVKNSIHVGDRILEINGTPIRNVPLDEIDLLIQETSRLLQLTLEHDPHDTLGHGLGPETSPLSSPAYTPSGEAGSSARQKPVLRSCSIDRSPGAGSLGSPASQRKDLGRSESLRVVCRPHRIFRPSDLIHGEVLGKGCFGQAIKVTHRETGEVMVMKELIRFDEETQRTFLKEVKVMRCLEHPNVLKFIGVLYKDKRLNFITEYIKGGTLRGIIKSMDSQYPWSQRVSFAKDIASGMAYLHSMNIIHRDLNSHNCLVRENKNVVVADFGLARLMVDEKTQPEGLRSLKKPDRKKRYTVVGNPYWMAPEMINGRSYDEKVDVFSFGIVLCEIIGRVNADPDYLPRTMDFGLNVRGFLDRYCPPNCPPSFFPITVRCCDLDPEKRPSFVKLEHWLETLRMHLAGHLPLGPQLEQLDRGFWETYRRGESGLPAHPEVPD
Sequence of Serine/threonine-protein kinase N1 (Q16512 whole entry): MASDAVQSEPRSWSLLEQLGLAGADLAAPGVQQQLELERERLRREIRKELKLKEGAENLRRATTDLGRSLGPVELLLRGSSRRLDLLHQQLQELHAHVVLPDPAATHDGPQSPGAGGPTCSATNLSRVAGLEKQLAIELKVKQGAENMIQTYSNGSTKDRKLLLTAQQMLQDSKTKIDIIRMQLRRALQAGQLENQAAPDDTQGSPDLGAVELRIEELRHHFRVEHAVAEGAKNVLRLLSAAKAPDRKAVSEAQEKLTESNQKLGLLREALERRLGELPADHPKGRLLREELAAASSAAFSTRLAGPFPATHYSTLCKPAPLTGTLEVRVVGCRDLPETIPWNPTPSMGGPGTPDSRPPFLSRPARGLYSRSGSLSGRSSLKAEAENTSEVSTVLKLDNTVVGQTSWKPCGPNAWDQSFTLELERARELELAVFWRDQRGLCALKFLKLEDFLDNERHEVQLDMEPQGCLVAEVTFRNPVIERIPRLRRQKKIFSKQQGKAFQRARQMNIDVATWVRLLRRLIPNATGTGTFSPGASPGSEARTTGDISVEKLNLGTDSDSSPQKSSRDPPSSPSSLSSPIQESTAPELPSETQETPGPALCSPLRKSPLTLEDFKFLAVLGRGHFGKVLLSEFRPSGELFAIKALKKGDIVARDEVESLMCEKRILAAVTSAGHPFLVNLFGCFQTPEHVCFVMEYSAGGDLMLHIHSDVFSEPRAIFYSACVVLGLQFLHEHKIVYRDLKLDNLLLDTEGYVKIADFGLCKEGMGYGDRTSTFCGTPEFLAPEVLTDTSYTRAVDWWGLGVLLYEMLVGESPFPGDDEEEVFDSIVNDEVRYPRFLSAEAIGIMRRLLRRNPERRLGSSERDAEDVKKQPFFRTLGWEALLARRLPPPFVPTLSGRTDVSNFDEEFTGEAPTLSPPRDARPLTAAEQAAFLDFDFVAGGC
Sequence of Serine/threonine-protein kinase N2 (Q16513 whole entry): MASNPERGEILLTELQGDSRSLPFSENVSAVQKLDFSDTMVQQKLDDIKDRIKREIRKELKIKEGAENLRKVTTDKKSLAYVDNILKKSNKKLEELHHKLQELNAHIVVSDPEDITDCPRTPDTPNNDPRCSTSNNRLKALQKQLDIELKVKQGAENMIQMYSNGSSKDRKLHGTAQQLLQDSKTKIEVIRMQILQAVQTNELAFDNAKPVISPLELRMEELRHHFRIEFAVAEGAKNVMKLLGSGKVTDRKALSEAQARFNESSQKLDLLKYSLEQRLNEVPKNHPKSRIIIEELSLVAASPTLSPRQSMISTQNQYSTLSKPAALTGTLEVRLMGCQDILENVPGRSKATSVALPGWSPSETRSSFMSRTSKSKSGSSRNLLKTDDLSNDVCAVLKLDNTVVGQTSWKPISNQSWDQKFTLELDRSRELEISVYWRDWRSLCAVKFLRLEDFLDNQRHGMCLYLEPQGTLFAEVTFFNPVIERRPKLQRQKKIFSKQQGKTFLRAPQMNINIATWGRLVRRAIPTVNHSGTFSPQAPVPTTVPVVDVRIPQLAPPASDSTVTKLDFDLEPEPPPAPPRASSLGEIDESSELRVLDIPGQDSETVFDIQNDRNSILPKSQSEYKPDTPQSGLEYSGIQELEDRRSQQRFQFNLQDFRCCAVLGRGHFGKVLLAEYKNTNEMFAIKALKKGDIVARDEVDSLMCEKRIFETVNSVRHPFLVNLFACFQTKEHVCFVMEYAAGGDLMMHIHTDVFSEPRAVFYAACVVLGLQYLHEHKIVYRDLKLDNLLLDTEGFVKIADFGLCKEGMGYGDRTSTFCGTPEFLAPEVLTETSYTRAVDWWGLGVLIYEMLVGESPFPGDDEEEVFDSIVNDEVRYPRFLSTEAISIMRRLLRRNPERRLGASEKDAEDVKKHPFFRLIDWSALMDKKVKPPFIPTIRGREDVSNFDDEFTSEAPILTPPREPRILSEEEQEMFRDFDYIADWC
Sequence of Tyrosine-protein kinase Fer (P16591 whole entry): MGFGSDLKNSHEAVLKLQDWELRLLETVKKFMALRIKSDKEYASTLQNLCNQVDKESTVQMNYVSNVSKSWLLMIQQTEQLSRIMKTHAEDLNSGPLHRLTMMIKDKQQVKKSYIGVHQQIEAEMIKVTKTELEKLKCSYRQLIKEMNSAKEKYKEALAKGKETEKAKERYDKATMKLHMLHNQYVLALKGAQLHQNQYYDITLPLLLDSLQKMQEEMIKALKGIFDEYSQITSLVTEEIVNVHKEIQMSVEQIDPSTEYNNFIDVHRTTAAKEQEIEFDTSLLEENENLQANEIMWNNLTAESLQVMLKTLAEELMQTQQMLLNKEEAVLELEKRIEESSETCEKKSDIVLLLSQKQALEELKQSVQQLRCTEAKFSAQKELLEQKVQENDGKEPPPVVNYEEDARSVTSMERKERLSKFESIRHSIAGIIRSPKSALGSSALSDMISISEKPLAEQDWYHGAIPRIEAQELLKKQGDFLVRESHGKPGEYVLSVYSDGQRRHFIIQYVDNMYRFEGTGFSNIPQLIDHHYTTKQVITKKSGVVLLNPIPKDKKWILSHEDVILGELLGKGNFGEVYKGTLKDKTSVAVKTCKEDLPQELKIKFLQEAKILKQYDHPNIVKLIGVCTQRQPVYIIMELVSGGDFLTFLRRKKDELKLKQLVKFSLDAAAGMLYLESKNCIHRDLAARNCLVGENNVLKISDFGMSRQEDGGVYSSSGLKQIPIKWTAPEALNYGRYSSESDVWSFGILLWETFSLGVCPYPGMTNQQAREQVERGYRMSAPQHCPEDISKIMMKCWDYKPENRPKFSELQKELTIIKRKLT

Turning to `CC(=O)Nc1cccc(-n2c(=O)n(C3CC3)c(=O)c3c(Nc4ccc(I)cc4F)n(C)c(=O)c(C)c32)c1` [TRAMETINIB], the Kd (in test [1]; in [2]; in test [3]; in test [4]; at Ephrin type-B receptor 6; in [5]) was > 30 µM (inactive) in each case. Moreover, the Kd (in test [6]; in test [7]; on LIM domain kinase 1; in [8]; in test [9]) was > 30 µM (inactive) in each case.
For the compound `Cn1ncc(Cl)c1-c1cc(C(=O)N[C@H](CN)Cc2cccc(F)c2)sc1Cl` [AFURESERTIB], the Kd (in [1]; in test [2]; in test [3]; in test [4]; at Ephrin type-B receptor 6; in test [5]) was > 30 µM (inactive) throughout. Further, the Kd was 0.88 µM (active) in [6]; > 30 µM (inactive) in test [7]; > 30 µM (inactive) on LIM domain kinase 1; > 30 µM (inactive) in [8]; > 30 µM (inactive) in test [9].
As to `CCCS(=O)(=O)Nc1ccc(F)c(C(=O)c2c[nH]c3ncc(-c4ccc(Cl)cc4)cc23)c1F` [VEMURAFENIB], the Kd (in test [1]; in test [2]; in test [3]; in [4]; on Ephrin type-B receptor 6; in [5]) was > 30 µM (inactive) in each case. For the same compound, the Kd (in test [6]; in test [7]; on LIM domain kinase 1; in test [8]; in test [9]) was > 30 µM (inactive) in each case.
Regarding `COCCNCc1ccc(-c2cc3nccc(Oc4ccc(NC(=S)NC(=O)Cc5ccc(F)cc5)cc4F)c3s2)nc1` [GLESATINIB], the Kd was > 30 µM (inactive) in [1]; > 30 µM (inactive) in [2]; 2.68 µM (active) in [3]; > 30 µM (inactive) in test [4]; > 30 µM (inactive) at Ephrin type-B receptor 6; > 30 µM (inactive) in [5]. Further, the Kd (in [6]; in test [7]; at LIM domain kinase 1; in test [8]; in test [9]) was > 30 µM (inactive) in each case.
For the compound `Cn1cc(-c2ccc3nnc(C(F)(F)c4ccc5ncccc5c4)n3n2)cn1` [JNJ-38877605], the Kd (in [1]; in [2]; in test [3]; in [4]; on Ephrin type-B receptor 6; in test [5]) was > 30 µM (inactive) throughout. Besides, the Kd (in [6]; in [7]; at LIM domain kinase 1; in test [8]; in test [9]) was > 30 µM (inactive) each time.
For the compound `Cc1cc([C@@H](C)Nc2ccccc2C(=O)O)c2nc(N3CCOCC3)cc(=O)n2c1` [AZD-6482], the Kd (in [1]; in test [2]; in test [3]; in test [4]; at Ephrin type-B receptor 6; in test [5]) was > 30 µM (inactive) throughout. In addition, the Kd (in test [6]; in test [7]; at LIM domain kinase 1; in [8]; in test [9]) was > 30 µM (inactive) throughout.
Turning to `COc1cc(CCc2cc(NC(=O)c3ccc(N4C[C@@H](C)N[C@@H](C)C4)cc3)n[nH]2)cc(OC)c1` [AZD-4547], the Kd (in test [1]; in test [2]; in test [3]; in [4]; on Ephrin type-B receptor 6; in test [5]) was > 30 µM (inactive) in each case. Further, the Kd (in test [6]; in test [7]; at LIM domain kinase 1; in test [8]; in test [9]) was > 30 µM (inactive) throughout.
For `CNC(=O)c1ccc(-c2cnc3ncc(Cc4ccc5ncccc5c4)n3n2)cc1F` [CAPMATINIB], the Kd (in [1]; in test [2]; in test [3]; in test [4]; on Ephrin type-B receptor 6; in test [5]) was > 30 µM (inactive) throughout. The Kd (in [6]; in [7]; on LIM domain kinase 1; in [8]; in test [9]) was > 30 µM (inactive) in each case.
As for `CN1CC[C@@H](c2c(O)cc(O)c3c(=O)cc(-c4ccccc4Cl)oc23)[C@@H]1CO`, the Kd was 1.34 µM (active) in test [1]; > 30 µM (inactive) in test [2]; > 30 µM (inactive) in test [3]; > 30 µM (inactive) in [4]; > 30 µM (inactive) at Ephrin type-B receptor 6; > 30 µM (inactive) in test [5]. The Kd (in test [6]; in test [7]; on LIM domain kinase 1; in test [8]; in test [9]) was > 30 µM (inactive) in each case.
Consider `N[C@@H]1CCCN(c2c(/C=C3\SC(=O)NC3=O)cccc2-c2ccccc2)C1`, for which the Kd (in test [1]; in [2]; in test [3]; in test [4]; on Ephrin type-B receptor 6; in [5]) was > 30 µM (inactive) in each case. Further, the Kd (in test [6]; in test [7]; on LIM domain kinase 1; in test [8]; in [9]) was > 30 µM (inactive) throughout.
